These are literature values, as cited in US20260232672A1, “COMPOSITIONS AND METHODS OF TREATING FEMALE SEXUAL DYSFUNCTION AND FEMALE SEXUAL AROUSAL DISORDER” (Daré Bioscience, Inc., priority 2023, published 2026).

Molecules are shown by their SMILES.

This data set relates to pre- and postmenopausal women afflicted with broad-spectrum FSD. The note with it: oral.

`CCCc1nn(C)c2c(=O)[nH]c(-c3cc(S(=O)(=O)N4CCN(C)CC4)ccc3OCC)nc12.O=C(O)CC(O)(CC(=O)O)C(=O)O` [oral sildenafil citrate, 1-[4-ethoxy-3-(6,7-dihydro-1-methyl-7-oxo-3-propyl-1H-pyrazolo[4,3-d]pyrimidin-5-yl)phenylsulfonyl]-4-methylpiperazine citrate salt]: the “rates of side effects” value (doses 25 mg-100 mg, previous clinical trials in women) is “high rates of side effects”. Also, the efficacy versus placebo entry (published placebo-controlled trials) is listed as “marginal efficacy versus placebo”.
